The source made the active and inactive calls. The calls are words filed in the database; no cut-off is given here.
Tests used:
[1] = tested on: A-431; assay: Inhibition of cell invasion in human A-431 cells assessed as inhibition rate at 50 uM incubated for 24 hrs by crystal violet staining based transwell assay; type: functional
[2] = Half life in C57BL/6 mouse 10 mg/kg, iv measured upto 24 hrs; type: ADME, organism-based; conditions: in vivo
[3] = Cytotoxicity against human A-431 cells measured after 24 hrs by MTT assay; type: toxicity, cell-based
[4] = Cytotoxicity against human HeLa cells measured after 24 hrs by MTT assay; type: toxicity, cell-based
[5] = Cytotoxicity against mouse Neuro2a cells measured after 24 hrs by MTT assay; type: toxicity, cell-based, N2a
[6] = Cytotoxicity against rat PC-12 cells measured after 24 hrs by MTT assay; type: toxicity, cell-based
[7] = Cytotoxicity against CHO cells measured after 24 hrs by MTT assay; type: toxicity, cell-based, Cricetulus griseus; conditions: Chinese hamster
[8] = Apparent volume of distribution in C57BL/6 mouse at 10 mg/kg, iv measured upto 24 hrs; type: ADME, organism-based; conditions: in vivo
[9] = Clearance in C57BL/6 mouse at 10 mg/kg, iv measured upto 24 hrs; type: ADME, organism-based; conditions: in vivo
[10] = tested on: A-431; assay: Antimigratory activity in human A-431 cells assessed as inhibition of scratch at 50 uM measured after 24 hrs by Wound healing assay; type: functional; set-up: scale not given: the % may be the effect or the level left
[11] = tested on: Mus musculus; assay: Effect on IL-2 expression in C57BL/6 mouse transfected with mouse B16-Luc cells assessed as serum IL-2 level at 5 mg/kg, ip qd treated for 7 days by ELISA; type: functional, organism-based; conditions: time 7.0 day
[12] = tested on: Mus musculus; assay: Effect on IL-2 expression in C57BL/6 mouse transfected with mouse B16-Luc cells assessed as serum […] level at 5 mg/kg, ip qd treated for 7 days by ELISA; type: functional, organism-based; conditions: time 7.0 day
[13] = tested on: Mus musculus; assay: Effect on IL-2 expression in C57BL/6 mouse transfected with mouse B16-Luc cells assessed as serum IgG level at 5 mg/kg, ip qd treated for 7 days by ELISA; type: functional, organism-based; conditions: time 7.0 day
[14] = tested on: Mus musculus; assay: Increase in IL-12 expression in BALB/c mouse transfected with mouse B16-Luc cells assessed as […] at 5 mg/kg, ip qd treated for 7 days by ELISA; type: functional, organism-based; conditions: time 7.0 day
[15] = tested on: Mus musculus; assay: Effect on IL-2 expression in BALB/c mouse transfected with mouse B16-Luc cells assessed as serum IL-2 level at 5 mg/kg, ip qd treated for 7 days by ELISA; type: functional, organism-based; conditions: time 7.0 day
[16] = tested on: Mus musculus; assay: Effect on IgG expression in BALB/c mouse transfected with mouse B16-Luc cells assessed as serum IgG level at 5 mg/kg, ip qd treated for 7 days by ELISA; type: functional, organism-based; conditions: time 7.0 day
[17] = Downregulation of VAVI gene expression in human A431 cells at 50 uM incubated for 24 hrs by RNA-seq analysis; type: functional; conditions: A-431
[18] = Downregulation of LAMA5 gene expression in human A431 cells at 50 uM incubated for 24 hrs by RNA-seq analysis; type: functional; conditions: A-431
[19] = Downregulation of HSPG2 gene expression in human A431 cells at 50 uM incubated for 24 hrs by RNA-seq analysis; type: functional; conditions: A-431
[20] = Downregulation of XIAP gene expression in human A431 cells at 50 uM incubated for 24 hrs by RNA-seq analysis; type: functional; conditions: A-431
[21] = Reduction of integrin beta1 expression in human A431 cells at 50 uM incubated for 24 hrs by Western blotting analysis; type: functional; conditions: A-431
[22] = Reduction of VAVI expression in human A431 cells at 50 uM incubated for 24 hrs by Western blotting analysis; type: functional; conditions: A-431
[23] = Toxicity in C57BL/6 mouse transfected with mouse B16-Luc cells assessed as behavioral abnormalities at 5 mg/kg, sc qd treated for 7 days; type: organism-based; conditions: in vivo, 168 h, time 7 day
[24] = Toxicity in BALB/c mouse transfected with mouse B16-Luc cells assessed as behavioral abnormalities at 5 mg/kg, sc qd treated for 7 days; type: organism-based; conditions: in vivo, 168 h, time 7 day
[25] = tested on: B16; assay: Anticancer activity against mouse B16-Luc cells transfected in C57BL/6 mouse assessed as relative tumor weight at 5 mg/kg, ip qd treated for 7 days (reference value: 8 + /- 4.1 g); type: functional; conditions: time 7 day
[26] = tested on: B16; assay: Anticancer activity against mouse B16-Luc cells transfected in BALB/c mouse assessed as relative tumor weight at 5 mg/kg, ip qd treated for 7 days (reference value: 5.3 + /-1.4 g); type: functional; conditions: time 7 day
[27] = tested on: B16; assay: Anticancer activity against mouse B16-Luc cells transfected in C57BL/6 mouse assessed as tumor inhibition rate at 5 mg/kg, ip qd treated for 7 days; type: functional; conditions: 168 h, time 7 day
[28] = tested on: B16; assay: Anticancer activity against mouse B16-Luc cells transfected in BALB/c mouse assessed as tumor inhibition rate at 5 mg/kg, ip qd treated for 7 days; type: functional; conditions: 168 h, time 7 day
[29] = tested on: B16; assay: Anticancer activity against mouse B16-Luc cells transfected in C57BL/6 mouse assessed as increase in tumor necrotic area at 5 mg/kg, ip qd treated for 7 days by H and E staining based microscopy relative to control; type: functional, organism-based; conditions: time 7.0 day
[30] = tested on: B16; assay: Anticancer activity against mouse B16-Luc cells transfected in BALB/c mouse assessed as increase in tumor necrotic area at 5 mg/kg, ip qd treated for 7 days by H and E staining based microscopy relative to control; type: functional, organism-based; conditions: time 7.0 day
[31] = tested on: B16; assay: Anticancer activity against mouse B16-Luc cells transfected in C57BL/6 mouse assessed as cell atypia in tumor tissue at 5 mg/kg, ip qd treated for 7 days by H and E staining based microscopy; type: functional, organism-based; conditions: time 7.0 day
[32] = tested on: B16; assay: Anticancer activity against mouse B16-Luc cells transfected in C57BL/6 mouse assessed as nuclear pyknosis in tumor tissue at 5 mg/kg, ip qd treated for 7 days by H and E staining based microscopy; type: functional, organism-based; conditions: time 7.0 day
[33] = tested on: B16; assay: Anticancer activity against mouse B16-Luc cells transfected in C57BL/6 mouse assessed as cellular debris in tumor tissue at 5 mg/kg, ip qd treated for 7 days by H and E staining based microscopy; type: functional, organism-based; conditions: time 7.0 day
[34] = tested on: B16; assay: Anticancer activity against mouse B16-Luc cells transfected in BALB/c mouse assessed as cell atypia in tumor tissue at 5 mg/kg, ip qd treated for 7 days by H and E staining based microscopy; type: functional, organism-based; conditions: time 7.0 day
[35] = tested on: B16; assay: Anticancer activity against mouse B16-Luc cells transfected in BALB/c mouse assessed as nuclear pyknosis in tumor tissue at 5 mg/kg, ip qd treated for 7 days by H and E staining based microscopy; type: functional, organism-based; conditions: time 7.0 day
[36] = tested on: B16; assay: Anticancer activity against mouse B16-Luc cells transfected in BALB/c mouse assessed as cellular debris in tumor tissue at 5 mg/kg, ip qd treated for 7 days by H and E staining based microscopy; type: functional, organism-based; conditions: time 7.0 day
[37] = tested on: B16; assay: Anticancer activity against mouse B16-Luc cells transfected in C57BL/6 mouse assessed as inflammatory cell infiltration in tumor tissue at 5 mg/kg, ip qd treated for 7 days by H and E staining based microscopy; type: functional, organism-based; conditions: time 7.0 day
[38] = tested on: B16; assay: Anticancer activity against mouse B16-Luc cells transfected in BALB/c mouse assessed as inflammatory cell infiltration in tumor tissue at 5 mg/kg, ip qd treated for 7 days by H and E staining based microscopy; type: functional, organism-based; conditions: time 7.0 day
[39] = tested on: Mus musculus; assay: Increase in IL-12 expression in C57BL/6 mouse transfected with mouse B16-Luc cells assessed as […] at 5 mg/kg, ip qd treated for 7 days by ELISA; type: functional, organism-based; conditions: time 7.0 day
[40] = Downregulation of VAVI gene expression in human A431 cells at 50 uM incubated for 24 hrs by qPCR analysis; type: functional; conditions: A-431
[41] = Downregulation of LAMA5 gene expression in human A431 cells at 50 uM incubated for 24 hrs by qPCR analysis; type: functional; conditions: A-431
[42] = Downregulation of HSPG2 gene expression in human A431 cells at 50 uM incubated for 24 hrs by qPCR analysis; type: functional; conditions: A-431
[43] = Downregulation of XIAP gene expression in human A431 cells at 50 uM incubated for 24 hrs by qPCR analysis; type: functional; conditions: A-431

- half-life [2]: 56.8 h
- Vd [8]: 2.4 mL/mg
- CL [9]: 0.483 µL/min/mg
Structure (SMILES): CCCCCCCCCCCCC/C=C/[C@@H](O)[C@H](CO[C@@H]1O[C@H](CO)[C@@H](O[C@@H]2O[C@H](CO)[C@H](O)[C@H](O[C@]3(C(=O)O)C[C@H](O)[C@@H](NC(=O)c4cccc(I)c4)[C@H]([C@H](O)[C@H](O)CO)O3)[C@H]2O)[C@H](O)[C@H]1O)NC(=O)CCCCCCCCCCCCCCCCC
- inhibition at 50 µM [1]: 36.6%
- IC50 at 24 h [3]: > 200 µM
- IC50 at 24 h [4]: > 200 µM
- IC50 at 24 h [5]: > 200 µM
- IC50 at 24 h [6]: > 200 µM
- IC50 at 24 h [7]: > 200 µM
- Activity [10]: 46.7%
- Activity [11]: inactive
- Activity [12]: inactive
- Activity [13]: inactive
- Activity [14]: inactive
- Activity [15]: inactive
- Activity [16]: inactive
- inhibition at 50 µM [17]: 100%
- inhibition at 50 µM [18]: 50.8%
- inhibition at 50 µM [19]: 55.2%
- inhibition at 50 µM [20]: 52.5%
- inhibition at 50 µM [21]: 14.7%
- inhibition at 50 µM [22]: 14.5%
- Activity [23]: Non-Toxic
- Activity [24]: Non-Toxic
- Activity [25]: 4.3 g
- Activity [26]: 5.3 g
- inhibition in vivo at 5 mg/kg [27]: 46.2%
- inhibition in vivo at 5 mg/kg [28]: 29.2%
- Activity [29]: Active
- Activity [30]: Active
- Activity [31]: Active
- Activity [32]: Active
- Activity [33]: Active
- Activity [34]: Active
- Activity [35]: Active
- Activity [36]: Active
- Activity [37]: Active
- Activity [38]: Active
- Activity [39]: inactive
- inhibition at 50 µM [40]: 93.4%
- inhibition at 50 µM [41]: 54.1%
- inhibition at 50 µM [42]: 33.4%
- inhibition at 50 µM [43]: 46.2%

— ChEMBL document CHEMBL5042529, “One-Pot Enzymatic Synthesis and Biological Evaluation of Ganglioside GM3 Derivatives as Potential Cancer Immunotherapeutics” (J Med Chem, 2022)
